These results are taken from article PMC13086964, “USP7 deubiquitinase stabilizes FAN1 to support DNA crosslink repair and suppress CAG repeat expansion” (Nature Communications, 2026).

Structures are written as SMILES.

Format in all cases: cell-based, human
The test system of one assay is RPE-1 p53 KO cells. Nature of the assay: apoptosis: PARP-1 and caspase-3 cleavage, RPE-1 p53 KO. To be noted: RPE-1 p53 KO cells depleted of FAN1, USP7, or both, MMC 1 μg/ml, 48 h. As to the method:
If not stated otherwise, cells were lysed in RIPA buffer (50 mM Tris-HCl, pH 7.5, 150 mM NaCl, 1% IGEPAL, 0.5% sodium deoxycholate, 0.1% SDS) supplemented with phosphatase inhibitors (20 mM NaF and 1 mM Na3VO4) and protease inhibitors (1 mM benzamidine and 0.1 mM PMSF), incubated with Benzonase (Merck) for at least 30 min at 4 °C, and clarified by centrifugation. Proteins were resolved by SDS-PAGE and transferred to nitrocellulose membranes. Immunoblots were performed with the indicated antibodies, and proteins were visualized using the Advansta WesternBright ECL reagent and the Fusion Solo S imaging system. Relative protein levels were determined by quantification of the protein of interest band intensity normalized to the loading control with the ImageJ software. […]
the mean (dashed lines) are indicated. Representative images are shown (bottom). Scale bar: 10 μm.
This experiment was repeated three times. (B) QIBC analysis of chromatin-bound GFP-FAN1 foci in U2OSGFP-FAN1 cells were concurrently mock-treated (-) or treated (+) with MMC (150 ng/ml) and either FT671 (10 µM) or GNE-6640 (10 µM) for 24 h. […] 24 h later, cells were either mock-treated (-) or treated (+) with MMC (1 μg/ml) for 48 h and whole-cell lysates were analysed by immunoblotting. […]
Relative FAN1 protein levels were determined by quantification of FAN1 band intensity (normalized to GAPDH) with the ImageJ software. […]

In a further assay the test system is HeLa cells. Description: clonogenic survival assay, HeLa parental. The conditions noted are these: MMC 10, 20, and 40 ng/ml, 24 h, n=4. As to the method: (§1) HeLa and RPE-1 p53 KO cells were transfected with the indicated siRNA. The next day, the cells were seeded in six-well plates. The next day, the cells were treated with MMC for 24 h. Plates were then washed twice with 2 ml of PBS before adding fresh growth medium to the cells, that were then cultured for 13 days at 37 °C before fixation with crystal violet solution [0.5% crystal violet and 20% ethanol (w/v)]. For analysis, plates were scanned and analysed with the ImageJ Plugin ColonyArea using the parameter “intensity percent”. […]
(§2) the mean (dashed lines) are indicated. Representative images are shown (bottom). Scale bar: 10 μm. […]
(§3) Western blot analysis of HeLa cells depleted of the indicated factors. (E) Clonogenic survival assay of the HeLa cells depleted of the indicated factors (Ctrl: black circle; FANCD2: red square; USP7#1: inverted blue triangle; USP7#2: cyan triangle; RAD18: brown diamond) and exposed to increasing doses of MMC for 24 h. Viability of untreated cells was defined as 100%. Data are presented as the means ± SD of four biological replicates (n=4). Representative images are shown (left). (F) Western blot analysis of HeLa and HeLa FAN1 KO cells depleted of the indicated factors. […]

The next assay has as its system HeLa FAN1 KO cells. Nature of the assay: clonogenic survival assay, HeLa FAN1 KO. The conditions noted are these: MMC 10, 20, and 40 ng/ml, 24 h, n=3. As to the method: as §1, §2, §3

For the molecule `CO[C@@]12[C@H](COC(N)=O)C3=C(C(=O)C(C)=C(N)C3=O)N1C[C@@H]1N[C@@H]12` [MMC, Mitomycin C], in the assay with RPE-1 p53 KO cells, the “apoptosis (cleavage of PARP-1 and caspase-3)” value is listed as “largely recapitulated”. The “MMC sensitivity, RAD18 or FANCD2 depletion” value in the assay on HeLa cells was “more pronounced effects”; in the assay with HeLa FAN1 KO cells, “additive increase in sensitivity”. The “MMC sensitivity, USP7 depletion” value in the assay with HeLa cells (two independent USP7 siRNA) is given as “only a modest increase MMC sensitivity”; in the assay with HeLa FAN1 KO cells, “did not exacerbate MMC hypersensitivity”.
